The subject of series [1] is C. difficile ATCC BAA 1801. Put plainly: MIC, broth microdilution, initial screening. The note with it: Clostridioides difficile, BAA1801, 48 h, C. difficile ATCC BAA 1801; anaerobic, 48 hours. It is filed as cell-based, Clostridioides difficile.
The subject of series [2] is C. difficile NR-13432 (isolate 6). Put plainly: MIC, broth microdilution, clinical isolate. The class given is cell-based. The note with it: Clostridioides difficile.
Series [3] deals with C. difficile NR-13435 (isolate 9). The series is described as follows: MIC, broth microdilution, clinical isolate. The note with it: Clostridioides difficile. The class given is cell-based. For orientation: Dilution methods test growth across graded concentrations, often in twofold steps.
Series [4] relates to C. difficile NR-32883 (P2). The series is described as follows: MIC, broth microdilution, clinical isolate. The note with it: Clostridioides difficile. The class given is cell-based.
Series [5] relates to C. difficile NR-32891 (P13). Put plainly: MIC, broth microdilution, clinical isolate. The class given is cell-based. The note with it: Clostridioides difficile.
For series [6], the system named is C. difficile NR-32895 (P19). The series is described as follows: MIC, broth microdilution, clinical isolate. The class given is cell-based. The note with it: Clostridioides difficile.
Series [7] concerns C. difficile NR-32904 (P30). The series is described as follows: MIC, broth microdilution, clinical isolate. It is filed as cell-based. The note with it: Clostridioides difficile.
Series [8] relates to C. difficile ATCC 43255. Put plainly: MIC, broth microdilution, clinical isolate. It is filed as cell-based. The note with it: Clostridioides difficile, ATCC43255.
For series [9], the system named is E. faecium ATCC 700221. The series is described as follows: MIC, broth microdilution. It is filed as cell-based. The note with it: Enterococcus faecium, ATCC700221.
In series [10] the test system is E. faecalis ATCC 51299. Put plainly: MIC, broth microdilution. It is filed as cell-based. The note with it: Enterococcus faecalis, ATCC51299.
The test system of series [11] is Lactobacillus gasseri HM-400. Put plainly: MIC against normal gut microbiota. The class given is cell-based. The note with it: HM400.
In series [12] the test system is Lactobacillus crispatus HM-103. Put plainly: MIC against normal gut microbiota. It is filed as cell-based. The note with it: HM103.
Series [13] deals with Lactobacillus crispatus HM-371. Put plainly: MIC against normal gut microbiota. The class given is cell-based. The note with it: HM371.
Series [14] deals with Bacteroides fragilis HM-711. The series is described as follows: MIC against normal gut microbiota. It is filed as cell-based. The note with it: HM711.
Series [15] has as its system Bacteroides fragilis HM-709. The series is described as follows: MIC against normal gut microbiota. It is filed as cell-based. The note with it: HM709.
Series [16] concerns C. difficile infection (CDI). The note with it: cited from earlier work.
The conditions of series [17]: cited from earlier work.
In series [18] the test system is E. coli JW55031 (TolC Mutant). The series is described as follows: MIC, broth microdilution. The class given is cell-based. The note with it: Escherichia coli.
The test system of series [19] is E. coli BW25113 (wild-type strain). The series is described as follows: MIC, broth microdilution. It is filed as cell-based, Escherichia coli.
The test system of series [20] is VRE clinical isolates. Put plainly: MIC range over VRE clinical isolates. The class given is cell-based, vancomycin-resistant enterococci. The note with it: Enterococcus, read-out: MICs ranging over VRE clinical isolates.
The subject of series [21] is Lactobacillus strains. The series is described as follows: MIC over Lactobacillus strains. The note with it: read-out: MIC against Lactobacillus strains. The class given is cell-based, Lactobacillus spp.
For series [22], the system named is Bacteroides spp. The series is described as follows: MIC over Bacteroides species. The class given is cell-based. The note with it: read-out: MIC against species of Bacteroides.
For series [23], the system named is human colorectal cells (Caco-2). Put plainly: In vitro cytotoxicity, MTS assay. The class given is cell-based. The note with it: 2 hours incubation with compound. A general note: Tetrazolium dyes change colour on reduction, which living cells bring about.
Series [24] deals with Caco-2 bilayers. The series is described as follows: Caco-2 bidirectional permeability assay. It is filed as in vitro ADME, human.
In series [25] the test system is C. difficile ATCC 43255. Put plainly: Frequency of spontaneous mutation. The note with it: for Frequency of mutation: inoculum ~10^9 CFU/mL.

Converted amounts (≈) assume the structure as drawn. “And” between values parts separate entries of the source, which are not always exact repeats. Equal entries are not always repeated.

With `Cc1ncc([N+](=O)[O-])n1CCO` [Metronidazole], the MIC in [1] was determined as 0.25 mg/L (≈ 1.46 µM); in [2], 0.25 mg/L (≈ 1.46 µM); in series [3], 0.125 mg/L (≈ 0.73 µM); in [4] it was 0.125 mg/L (≈ 0.73 µM); in series [5], 0.125 mg/L (≈ 0.73 µM); in [6], 0.25 mg/L (≈ 1.46 µM). The MIC in series [7] is 0.25 mg/L (≈ 1.46 µM); in series [8], 0.25 mg/L (≈ 1.46 µM); in series [9] it was > 64 mg/L; in series [10] it was > 64 mg/L; in series [11], > 64 mg/L; in series [12], > 64 µg/mL and > 374 µM. Also, the MIC in series [13] is > 64 mg/L; in [14], ≤ 1 mg/L; in series [15], 2 mg/L (≈ 11.7 µM). Besides, the treatment failure in [16] is on record as 22%. Further, the “bioavailable (absorption from the intestinal tract)” value in series [17] was 100%.

Take `O=C(Nc1nnc(-c2cc(Cl)cc(Cl)c2)o1)c1ccc(SC(F)(F)F)cc1` [HSGN-218, N-(5-(3,5-Dichlorophenyl)-1,3,4-oxadiazol-2-yl)-4-((trifluoromethyl)thio)benzamide]: the MIC in [2] is 0.03 mg/L (≈ 0.0691 µM); in series [3], 0.003 mg/L (≈ 0.00691 µM); in [8], 0.015 mg/L (≈ 0.0345 µM); in [9], 0.125 mg/L (≈ 0.288 µM); in series [10], 0.06 mg/L (≈ 0.138 µM); in series [18], 4 mg/L (≈ 9.21 µM). For the same compound, the MIC in series [19] (Escherichia coli, BW25113) was > 16 mg/L; in series [20], 0.06 µg/mL to 0.125 µg/mL and 0.14 µM to 0.29 µM; in series [11], 16 mg/L (≈ 36.8 µM); in series [12], 16 mg/L (≈ 36.8 µM); in series [13], 16 mg/L (≈ 36.8 µM); in series [14], 2 mg/L (≈ 4.61 µM). Besides, the MIC was 1 mg/L (≈ 2.3 µM) in series [15]; 16 mg/L (≈ 36.8 µM) in series [21]; 1 µg/mL to 2 µg/mL and 2.3 µM to 4.6 µM in series [22]. Moreover, in series [19] (wild-type strain), the “activity against E. coli BW25113 in words” value was “inactive”. Further, the “concentration highly tolerable to Caco-2 cells” value in [23] is given as “higher than 64 μg/mL”. Moreover, the “Notes (permeability class)” value in series [24] is “Low Permeability”. For the same compound, the “isolation of resistant mutants” value in series [25] (15 × MIC and 20 × MIC, high inoculum) is recorded as “No resistant mutants were isolated”. In addition, the Frequency of mutation in [25] (15 × MIC) and in series [25] (20 × MIC) was <1.1× 10^−9 throughout.

These data come from publication PMC9064041 (Journal of medicinal chemistry, 2020).
